Test results published in publication PMC11997890, “In Vivo and In Vitro Pharmacokinetic Studies of a Dual Topoisomerase I/II Inhibitor” (ACS Pharmacology & Translational Science, 2025).
Each block holds one compound with its values, some of them ahead of it.

Assays:
[1] = In vivo elimination via urine and feces over 24 h; set-up: species or system Sprague–Dawley rats; details: for P8-D6 (plus glucuronide) exceeds metabolite in feces: 24 h cumulative
Description: To investigate the elimination of P8-D6 and its phase I and phase II metabolites, urine and feces samples were collected over the course of 24 h and examined.
To examine possible in vivo phase II metabolites, an enzymatic hydrolysis with glucuronidase/sulfatase from Helix pomatia was performed with both urine and feces samples. […] No sulfate phase II metabolites were observed.
Effects of the diet were reduced by fasting the rats overnight prior to P8-D6 application. Blood samples were taken at 5, 15, 30, 60, 120, 180, 300, 360, and 600 min after i.v. application or 30, 60, 90, 120, 240, and 600 min after p.o. application. Immediately afterward, the plasma was collected by centrifugation at 2000 g for 10 min. The rats were housed in metabolic cages to collect the urine in specially attached containers. Urine and feces samples were collected every 2 h. The rats were euthanized by CO2 inhalation. The harvested organs (kidney, spleen, lung, liver, and colon) were weighed and submerged in liquid nitrogen. All collected samples were stored at −80 °C until analysis.
Thirty mg of feces was added to 100 μL of a 0.15 M NaCl solution and stirred in the vortex for 30 s. Afterward, 200 μL of an ice-cold mixture of acetonitrile/methanol (2:1) was added before vortexing again for 30 s. Finally, the suspension was centrifuged at 15000 g for 5 min. 40 μL of the supernatant was injected into the HPLC. The samples from three mice per group were analyzed. Calibration/control samples were prepared the same way with fecal samples collected ahead of the in vivo study. For calibration, the matrix was spiked with a defined concentration of the analyte. Final concentrations ranged from 0 nmol/g to 200 nmol/g. Triple determinations were performed and prepared on each respective day. 50 μL of urine was mixed with 100 μL of an ice-cold mixture of acetonitrile/methanol (2:1) and stirred in the vortex for 5 min. The suspension was centrifuged at 15000 g for 5 min, and 40 μL of the supernatant was injected into the HPLC. Calibration/control samples were prepared the same way with urine samples collected ahead of the in vivo study. For calibration, the matrix was spiked with a defined concentration of the analyte. Final concentrations ranged from 0 to 10 μM. Triple determinations were performed and prepared on each respective day. LoD: 0.02 μM (urine), 0.22 nmol/g (feces); LoQ: 0.06 μM (urine), 0.72 nmol/g (feces). Additionally, to identify phase II metabolites, feces (30 mg) and urine (50 μL) from the in vivo study were incubated with arylsulfatase (at pH 6.2) and glucuronidase (at pH 4.5) from Helix pomatia in acetate buffer for 2 h in a 37 °C water bath. For reference, feces and urine without enzyme and 4-nitrophenylsulfate and 4-nitrophenylglucuronide were incubated as well. All experiments were performed in biological triplicates.

[2] = system: OvCar8 cells; experiment: 2D monolayer apoptosis (caspase activity) assay (ApoLive-Glo); type: cell-based, human; details: 48 h
Description: The efficacy of metabolites can have a significant impact on the efficacy of the drug. […] The therapeutic effect of P8-D6 mono and P8-D6 N-oxide was investigated in vitro in human ovarian cancer 2D monolayers and 3D spheroids (Figures and ). 48 h of treatment of the ovarian cancer cell lines (OvCar8, A2780, Igrov-1) with P8-D6 mono and P8-D6 N-oxide was compared to P8-D6 and cisplatin (study preparation scheme supplied as Figure S5). Both metabolites decreased viability in ovarian cancer cells in a 2D monolayer (Figure A, supplied as Figure S3 A,C).
The human ovarian cancer cell lines OvCar8, Igrov-1, and A2780, purchased from ATCC, were maintained in RPMI1640 medium, including L-glutamine supplemented with 10% fetal bovine serum and 60 IU/mL penicillin–streptomycin. Cells were grown at 37 °C and 5% CO2 in a humidified incubator and subcultivated at a confluency of 70–80%. […]
For the measurements of viability and apoptosis, cells of approximately 8000/well were seeded in a Corning No. 3903 plate and treated with the corresponding drugs for 48 h. […] Fluorescence and luminescence units were measured by using a microplate multimode reader (Spark, Tecan). Relative caspase activity was calculated as caspase activity divided by viability (normalized to control). […]

[3] = system: OvCar8 spheroids; experiment: 3D spheroid viability (RealTime-Glo); type: cell-based, human; details: for IC50: Homo sapiens, OVCAR-8, OvCar8 3D spheroids, 48 h
Description: Tumor complexity is represented more realistically in 3D spheroid models than in 2D monolayer models.
OvCar8 cells (8000/well) were seeded into an Ultra-Low-Attachment plate (Corning #4520) and grown for 96 h. Then, spheroids were treated with the drugs for 48 h. Cell cytotoxicity was assessed using the CellTox Green Cytotoxicity Assay (Promega #G8731) 48 h after treatment with NYONE ([…], 485Ex/520Em). Filters: BFEx/GreenEm (530/43 nm); BlueEx (475/28 nm)/GreenEm (530/43 nm). Viability and apoptosis were determined by RealTime-Glo (460Em) (Promega #G9711) and caspase-Glo 3/7 (565Em) (Promega #G8090) according to the manufacturer’s instructions using a microplate reader (Spark, Tecan). Relative caspase activity: caspase activity divided by the viability (normalized to control). For live-dead staining, cells were grown and treated as described above. Then, 80% of the medium was removed and replaced with propidium iodide (PI) (15 μM), calcein-AM (0.2 μM), and Hoechst 33342 (1.8 μM) in medium for 3 h and imaged by NYONE ([…]). Filters: BFEx/GreenEm(530/43 nm); Hoechst 33342: UVEx (377/50 nm)/BlueEm (452/45 nm); calcein-AM: BlueEx (475/28 nm)/GreenEm (530/43 nm); propidium iodide: LimeEx(562/40 nm)/RedEm(628/32 nm). All experiments were performed in biological triplicates. PBS was used as the negative control, and cisplatin and P8-D6 as the positive control.

[4] = system: NCI-60 human tumor cell lines; experiment: NCI-60 DTP Human Tumor Cell Lines Screening; type: cell-based; details: for GI50: Homo sapiens, NCI-60 panel

- P8-D6 (plus glucuronide) exceeds metabolite in feces [1]: 3.7 fold
- IC50 [3]: 240 nM
SMILES: CNCCOc1nc2c3cnccc3cc(-c3cc(OC)c(OC)c(OC)c3)c2c2ccncc12 [P8-D6 mono]
- apoptosis induction [2]: comparable to that of P8-D6
- GI50 [4]: 37 nM

- P8-D6 (plus glucuronide) exceeds metabolite in feces [1]: 31 fold
- concentration in feces ([1]; after 2 h): 2.90 nmol/g
- detectable in feces up to ([1]; rat, in vivo): up to 8 h
- IC50 [3]: 720 nM
SMILES: COc1cc(-c2cc3ccncc3c3nc(OCC[N+](C)(C)[O-])c4cnccc4c23)cc(OC)c1OC [P8-D6 N-oxide]
- apoptosis rate higher than cisplatin ([2]; 10 μM): 3.5 fold
- efficacy increased compared to cisplatin ([3]; 3D spheroids): 18 fold
- efficacy reduced compared to P8-D6 mono ([3]; 3D spheroids): 3 fold

SMILES: COc1cc(-c2cc3ccncc3c3nc(OCCN(C)C)c4cnccc4c23)cc(OC)c1OC [P8-D6, 6-(N,N-dimethyl-2-aminoethoxy)-11-(3,4,5-trimethoxyphenyl)-pyrido[3,4-c][1,9]-phenanthroline]
- GI50 [4]: 49 nM

- detection in urine and feces ([1]; 24 h): absent
SMILES: COc1cc(-c2cc3ccncc3c3[nH]c(=O)c4cnccc4c23)cc(OC)c1OC [P8-DO]
- efficacy against cancer ([4]; NCI 60 Cell Screening): ineffective against cancer
